In article PMC5410595, “In Vitro and In Silico Antidiabetic and Antimicrobial Evaluation of Constituents from Kickxia ramosissima (Nanorrhinum ramosissimum)” (Frontiers in Pharmacology, 2017):
Values after ≈ are worked out from the molar mass of the structure shown. Values joined by “and” are separate entries in the source; they are usually repeats but may differ in a detail not shown here. Equal entries are not always repeated. “Also recorded” adds a separate entry of the source.

Legend:
[1] = system: formation of AGEs (BSA-MGO); test: BSA-MGO antiglycation assay; format: biochemical
Protocol: (§1) The BSA-glucose and BSA-MGO antiglycation assays were performed as reported before ([Amin et al., 2016]). The test protocol is attached as Supplementary Material ([Amin et al., 2016]).
60 Protein-glyoxal interaction (BSA-MGO assay)
61 The antiglycation assay using methylgloxyl (MGO) was performed according to the method
62 developed by Peng et al. (2007) with slight modifications. Briefly, methylglyoxal (135 μL, 5.75
63 mM) was incubated with BSA (135 μL, 10 mg/mL) dissolved in phosphate buffer (50 mM, pH
64 7.4, containing sodium azide (0.02%), added to prevent bacterial growth) and test compounds
65 (30 μL) at different final concentrations (1.5 – 0.023 mM) in 100% DMSO. The reaction
66 mixture was incubated at 37 °C for one week. Control solutions only contained methylglyoxal
67 (135 μL, 5.75 mM) BSA (135 μL, 1 0mg/mL) and DMSO (100%) only. The blank samples of
68 similar composition were also prepared simultaneously and kept at 4 °C for one week. The
70 440) due to formation of AGEs was monitored by spectrofluorometry (Tecan® Infinite M200,
71 Giessen, The Netherlands). Aminoguanidine (3-0.046 mM final concentration) was used as
72 reference compound. The AGEs inhibition was calculated as
74 % AGEs inhibition = [1–(S–Sb)/(C–Cb)] x 100
76 where S and C were fluorescence of test samples (in DMSO) and control (test mixtures
77 containing only DMSO) incubated at 37 °C, and where Sb and Cb were fluorescence for
78 samples incubated at 4 °C.
79 using Sigma plot® 13.0.

[2] = system: formation of AGEs (BSA-glucose); test: BSA-glucose antiglycation assay; format: biochemical; details: for IC50: read-out: Protein glycation BSA-Glucose IC50
Protocol: as §1
28 Antiglycation assay (BSA-Glucose assay)
29 In the BSA-glucose assay the prevention of AGEs formation is investigated by determining the
30 fluorescence of the complex formed after incubation of a sugar (glucose) with protein (BSA) in
31 the presence or absence of test compounds. The antiglycation assay was performed according to
32 the method developed by Matsuura et al. (2002) with minor modifications. […]
37 DMSO. The mixtures were incubated at 60°C for 48 h. After incubation, the reaction mixture
38 was allowed to cool down at room temperature. Then 100 µL reaction mixture was transferred
39 to a new plastic tube (1.5 mL) and the reaction was stopped by adding 10 μL of 100% (w/v)
40 trichloroacetic acid (TCA) and to precipitate proteins. The TCA-added mixture was kept at 4°C
41 for 10 min, followed by centrifugation (14000 rpm, 4 °C, 4 min). The supernatant containing
42 unreacted D-glucose, test sample and interfering substances was discarded, whereas the
44 8.1 mM Na2HPO4, 2.68 mM KCl, 1.47 mM KH2PO4, […]). The change in fluorescence
46 of AGEs was monitored by spectrofluorometry (Tecan™ Infinite M200, Giessen, The
47 Netherlands). In order to eliminate interference by autofluorescence of the test compounds, a
48 parallel incubation of test substance with BSA at 60°C without D-glucose was performed for all
50 final concentration) were used as reference compounds.
51 The AGEs inhibition was calculated as
55 where F is the fluorescence intensity.
56 calculated using Sigma plot® 13.0.

[3] = target: T1, α-glucosidase from Saccharomyces cerevisiae (Saccharomyces cerevisiae, UniProt P53341); test: α-glucosidase inhibition assay; format: biochemical; parameters: inhibition: dose or concentration left out as unconfirmed; details: read-out: α-glucosidase % inhibition
T1 construct: purchased Sigma-Aldrich
T1 sequence (P53341 whole entry): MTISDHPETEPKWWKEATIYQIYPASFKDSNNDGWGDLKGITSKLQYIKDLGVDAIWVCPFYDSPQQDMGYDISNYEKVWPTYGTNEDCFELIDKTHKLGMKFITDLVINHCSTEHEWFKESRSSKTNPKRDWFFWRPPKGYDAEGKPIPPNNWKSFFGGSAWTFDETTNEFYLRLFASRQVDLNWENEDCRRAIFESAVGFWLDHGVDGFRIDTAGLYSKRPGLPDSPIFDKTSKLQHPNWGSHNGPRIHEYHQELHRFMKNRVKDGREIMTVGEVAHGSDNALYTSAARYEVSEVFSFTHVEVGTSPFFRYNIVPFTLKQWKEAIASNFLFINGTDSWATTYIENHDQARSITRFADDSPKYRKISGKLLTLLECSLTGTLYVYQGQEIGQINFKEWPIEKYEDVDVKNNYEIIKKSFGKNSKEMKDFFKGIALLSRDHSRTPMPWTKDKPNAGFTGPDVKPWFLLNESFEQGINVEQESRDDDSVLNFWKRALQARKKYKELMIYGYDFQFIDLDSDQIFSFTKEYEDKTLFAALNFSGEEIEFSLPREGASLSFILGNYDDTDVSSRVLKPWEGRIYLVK
Protocol: The α-glucosidase assay was carried out according as reported before ([Amin et al., 2016]). The test protocol is attached as Supplementary Material ([Amin et al., 2016]).
81 Inhibition of α-glucosidase.
82 α-Glucosidase inhibitory activity was assayed according to method adopted by Choudhary et al.
83 (2010) with some modifications. Briefly, 50 µL of a solution of α-glucosidase from
84 Saccharomyces cerevisiae (0.2 U/mL in 0.1 M phosphate buffer at pH 6.8, Sigma-Aldrich, St.
85 Louis, MO, USA) was incubated with 20 μL of test compounds or extracts at different
86 concentrations (ranging from 6 mM – 0.372 mM in 25% DMSO for isolated constituents or
87 from 5 mg to 0.039 mg/mL for extracts) at 37 °C for 10 min. Then 50 μl of the substrate,
88 p-nitrophenyl-α-D-glucopyranoside (0.7 mM stock, final concentration 0.29 mM) was added to
89 the reaction mixture and incubated again for 30 min at 37 °C. […]
91 from 834 µg to 6.5 µg/mL for extracts. The reaction was stopped by adding Na2CO3 (100 μl,
92 200 mM stock) solution and the absorbance was measured at 400 nm. Final DMSO
93 concentration remained below 7.5% during the assay.
94 concentration) was used as reference compound.
96 The % inhibition was calculated using the following formula:
98 % Inhibition = 100 – [OD (test sample) / OD (control)] × 100
100 Alpha-glucosidase inhibition was categorized as mild (1-25%), moderate (26-50%), high

15-LOX from soybean = target: T2, 15-LOX from soybean (Glycine max, UniProt P08170); test: 15-lipoxygenase inhibition assay; format: biochemical; details: at the highest test concentration
T2 sequence (P08170 1-839): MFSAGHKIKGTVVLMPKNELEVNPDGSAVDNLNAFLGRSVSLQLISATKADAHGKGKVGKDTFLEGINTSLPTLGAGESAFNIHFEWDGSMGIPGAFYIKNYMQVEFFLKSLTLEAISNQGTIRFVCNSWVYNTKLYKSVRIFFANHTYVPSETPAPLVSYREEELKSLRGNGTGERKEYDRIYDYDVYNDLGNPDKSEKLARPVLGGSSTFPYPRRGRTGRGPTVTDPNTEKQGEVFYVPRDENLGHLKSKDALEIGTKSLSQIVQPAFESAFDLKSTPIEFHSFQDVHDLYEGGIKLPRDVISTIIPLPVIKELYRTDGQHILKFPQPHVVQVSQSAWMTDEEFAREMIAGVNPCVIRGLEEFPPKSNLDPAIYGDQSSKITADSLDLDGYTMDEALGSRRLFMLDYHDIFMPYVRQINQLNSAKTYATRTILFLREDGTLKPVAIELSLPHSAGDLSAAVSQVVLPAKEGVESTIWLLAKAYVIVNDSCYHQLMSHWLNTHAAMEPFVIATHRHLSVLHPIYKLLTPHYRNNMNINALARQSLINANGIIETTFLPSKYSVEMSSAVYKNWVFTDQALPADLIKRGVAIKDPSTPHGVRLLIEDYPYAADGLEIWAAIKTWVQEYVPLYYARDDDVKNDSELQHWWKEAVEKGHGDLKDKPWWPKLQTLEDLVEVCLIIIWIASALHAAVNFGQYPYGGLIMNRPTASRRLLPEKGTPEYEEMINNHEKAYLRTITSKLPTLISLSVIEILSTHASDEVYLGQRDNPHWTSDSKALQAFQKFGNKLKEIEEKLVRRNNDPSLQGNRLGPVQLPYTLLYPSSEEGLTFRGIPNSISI
Protocol: The soybean LOX assay is used as an indication of anti-inflammatory activity ([Muller, 1994]), and therefore during the present investigation, 15-LOX from soybean was used for peroxidation of linoleic acid, and inhibition was measured as described previously with slight modifications ([Malterud and Rydland, 2000]). Briefly, 12.5 μL (2–0.062 mM) of sample was dissolved in DMSO, and added to 487.5 μL of enzyme solution (200 U/mL). The mixture was incubated at room temperature for 5 min. Absorbance was recorded immediately after the addition of 500 μL of substrate (250 μM linoleic acid in 0.2 M borate buffer, pH 9) every minute up to 5 min at 234 nm.
% inhibition of enzyme activity was calculated as,
%inhibition of enzyme activity=([ΔA1/Δt]−[ΔA2/Δt])/(ΔA1/Δt)×100
where ΔA1/Δt and ΔA2/Δt are the increase rate in absorbance at 234 nm for sample without test substance and with test substance, respectively.

[4] = system: AAPH induced linoleic acid peroxidation; test: Inhibition of linoleic acid lipid peroxidation, AAPH assay; format: biochemical; details: slope of inhibition time (Tinh) vs. concentration of antioxidant
Protocol: The inhibition of linoleic acid lipid peroxidation was studied according to [Liegeois et al. (2000)] and [Rajic et al. (2010)]. Briefly, 10 μL of a 16 mM linoleic acid dispersion and 10 μL of the test compound (8-1 μM final concentration) were added to the UV cuvette containing 0.93 mL of 0.05 M phosphate buffer, pH 7.4. The oxidation reaction was initiated under air by the addition of 50 μL (40 mM) of AAPH solution. The rate of oxidation at 37°C was monitored by recording the increase of absorption at 234 nm caused by conjugated diene hydroperoxides. The results were compared to the standard inhibitor (Trolox). The AOP is defined as the slope of the curve representing the inhibition time of oxidation (Tinh) vs. the concentration of antioxidant and is expressed in min/μM.

[5] = system: Trypanosoma cruzi, Tulahuen LacZ, clone C4; test: Antimicrobial screening panel: Trypanosoma cruzi; format: cell-based
Protocol: (§2) Fractions and isolated compounds were evaluated for antimicrobial activity in an integrated screening panel, also including the human MRC-5 cell line to assess selectivity, as reported before ([Cos et al., 2006]; [Mesia et al., 2008]; [Baldé et al., 2010]; [Amin et al., 2016]).

Escherichia coli = test: Antimicrobial screening panel: Escherichia coli; format: cell-based
Protocol: as §2

[6] = system: Leishmania infantum, MHOM/MA/67/ITMAP263; test: Antimicrobial screening panel: Leishmania infantum; format: cell-based
Protocol: as §2

[7] = system: Trypanosoma brucei, Squib 427; test: Antimicrobial screening panel: Trypanosoma brucei; format: cell-based
Protocol: as §2

[8] = system: Microsporum canis, B68128 Janssen strain; test: Antimicrobial screening panel: Microsporum canis; format: cell-based
Protocol: as §2

Q: How did the IC50 ([1]; read-out: Protein glycation BSA-MGO IC50) turn out when `N=C(N)NN` [Aminoguanidine, reference compound] was run?
A: Its IC50 is 150 µM.

Q: What about the “IC50, BSA-glucose assay” value ([2]; fractions and positive control) of the same compound?
A: The value was 199 mg/L (≈ 2690 µM).

Q: And the IC50 [2]?
A: Its IC50 is 1750 µM.

Q: With `CC1(O)C(Cl)C(O)C2(O)C=COC(OC3OC(CO)C(O)C(O)C3O)C12` (centres unmarked) [Compound 4, Linarioside] as the compound, how does the “Protein glycation BSA-MGO % inhibition” value ([1]; isolated constituents, highest test concentration) read?
A: The value was 9%.

Q: What about the “Protein glycation BSA-Glucose % inhibition” value ([2]; isolated constituents, at the highest test concentration of 3 mM) of the same compound?
A: Its value is “did not present any activity; also recorded: no activity”.

Q: And the inhibition [3]?
A: Its inhibition is 29%.

Q: And the “15-LOX assay % inhibition” value (15-LOX from soybean)?
A: The value was 8%.

Q: With `O=c1c(O)c(-c2ccc(O)c(O)c2)oc2cc(O)cc(O)c12` [Quercetin, reference compound] as the compound, how does the IC50 [2] read?
A: Its IC50 is 230 µM.

Q: For `Cc1c(C)c2c(c(C)c1O)CCC(C)(C(=O)O)O2` (centres unmarked) [Trolox, reference compound], which “AAPH assay AOP (antioxidant power)” value [4] is on record?
A: Its value is 14.12 min/μM and 14.12^c min/μM.

Q: With `O=C(Cn1ccnc1[N+](=O)[O-])NCc1ccccc1` [benznidazol, reference compound] as the compound, how does the IC50 [5] read?
A: The IC50 was 2.13 µM.

Q: Which IC50 (Escherichia coli) does the source give for `O=C(N[C@H](CO)[C@H](O)c1ccc([N+](=O)[O-])cc1)C(Cl)Cl` [chloramphenicol] here?
A: Its IC50 is 2.42 µM.

Q: How did the IC50 [6] turn out when `CCCCCCCCCCCCCCCCOP(=O)([O-])OCC[N+](C)(C)C` [miltefosine] was run?
A: Its IC50 is 9.02 µM.

Q: `Cc1ccc(C(=O)Nc2ccc(S(=O)(=O)O)c3cc(S(=O)(=O)O)cc(S(=O)(=O)O)c23)cc1NC(=O)c1cccc(NC(=O)Nc2cccc(C(=O)Nc3cc(C(=O)Nc4ccc(S(=O)(=O)O)c5cc(S(=O)(=O)O)cc(S(=O)(=O)O)c45)ccc3C)c2)c1` [suramine] was tested. Which IC50 [7] did it give?
A: The IC50 was 0.03 µM.

Q: With `CN(C/C=C/C#CC(C)(C)C)Cc1cccc2ccccc12` [terbinafin] as the compound, how does the IC50 [8] read?
A: Its IC50 is 1.38 µM.
